According to US20100010078A1, “METHODS OF TREATING ANDROGEN DEPENDENT PROSTATE CANCER BY ADMINISTERING AN ACTIVE PHARMACEUTICAL INGREDIENT BEING FISETIN, 3,3',4',7-TETRAHYDROXYFLAVONE OR A DERIVATIVE THEREOF, IN AN ORAL, TRANSDERMAL OR TOPICAL DOSAGE FORM” (priority 2008, published 2010):
Where two headings read alike, the source gives them in different places.

Legend:
caspase-3 and -7 = test: Immunofluorescence staining for active caspase-3 and -7; assay type: cell-based, human; settings: LNCaP, fisetin only 40 μM, 48 h
Protocol: Immunofluorescence staining for active caspase-3 and -7. LNCaP cells were incubated with 40 μM concentration of the general caspase inhibitor Z-VAD-FMK for 2 h, followed by the addition of fisetin (40 μM; 48 h) and then harvested. ICT's Magic Red™ substrate-based MR-Caspase assay kit was used for the immunofluorescence staining for caspase-3 and -7. This kit utilizes the fluorophore, cresyl violet. As the 4 amino acid sequence, aspartylglutamylalanylaspartic acid (DEVD) is the optimal sequence for caspase -3 as well as -7, it was coupled to cresyl violet to create the caspase 3/7 substrate, MR-(DEVD)2. […] Following enzymatic hydrolysis at one or both of the aspartic acid amide linkage sites, the mono and non-substituted cresyl violet fluorophores fluoresce red and fluorescence photographs were obtained at 510-560 nm excitation and 610 nm emission.

[1] = system: Bad, Bax, Bcl2 and Bcl-xL; test: Silencing of Akt by siRNA, Bcl2-family proteins in LNCaP cells; assay type: cell-based, human; settings: LNCaP transfected with Akt-siRNA, fisetin 40 μM, 48 h
Protocol: Silencing of Akt by Small Interfering RNA. LNCaP cells were transfected with Akt-siRNA (75 nmol) and scrambled siRNA (75 nmol) procured from Dharmacon (Lafayette, Colo.) using the Nucleofection Kit R specific for LNCaP transfection from Amaxa Biosystems (Gaithersburg, Md.). Cells were resuspended in a solution from nucleofector kit R following the manufacturer's guidelines. 100 μl of nucleofector solution R was mixed with 2×10^6 cells and siRNA. They were then transferred to the cuvette provided with the kit and were nucleofected with an Amaxa Nucleofector apparatus. Cells were transfected using the T-001 pulsing parameter and were transferred into 100-mm plates containing 37° C. prewarmed culture medium. After transfection, cells were cultured and the medium was replaced with fresh medium. Cells were treated with 40 μM fisetin for 48 h, and protein lysates were prepared. Using 2 μg of GFP we observed 70-80% transfection efficiency with this protocol.

LNCaP cells [2] = test: MTT cell viability assay, LNCaP cells; assay type: cell-based; settings: Homo sapiens, read-out: decrease in cell viability; for cytotoxicity at 10 µM: fisetin 10 μM; for cytotoxicity at 20 µM: fisetin 20 μM; for cytotoxicity at 40 µM: fisetin 40 μM; for cytotoxicity at 60 µM: fisetin 60 μM
Protocol: obtained from ATCC (Manassas, Va.). LNCaP cells were cultured in Dulbecco's Modified Eagle's medium supplemented with 5% heat-inactivated fetal bovine serum and 1% penicillin/streptomycin (P-S). CWR22Ru1 and PC-3 cells were grown in RPMI 1640 (Invitrogen) supplemented with 10% fetal bovine serum and 1% P-S. Human prostate epithelial cells (PrEC) were obtained from Cambrex Bioscience (Walkersville, Md.) and grown in prostate epithelial basal cell medium (Cambrex Bioscience) according to the manufacturer's instructions. The cells were maintained under standard cell culture conditions at 37° C. and 5% CO2 in a humid environment. Fisetin dissolved in dimethyl sulfoxide (final concentration 0.1% v/v) was used for the treatment of cells. The cells (60-70% confluent) were treated with fisetin (10-60 μM) for 24 and 48 h in complete growth medium.
Cell viability. The effect of fisetin on the viability of cells was determined by 3-[4,5-dimethylthiazol-2-yl]-2,5-diphenyl tetrazoliumbromide assay. LNCaP, CWR22Ru1, PC-3 and PrEC cells were plated at 1×10^4 cells per well in 200 μl of complete culture medium containing 10-60 μM concentrations of fisetin in 96-well microtiter plates for 24 and 48 h. After incubation for specified times at 37° C. in a humidified incubator, 3-[4,5-dimethylthiazol-2-yl]-2,5-diphenyl tetrazoliumbromide (5 mg/ml in PBS) was added to each well and incubated for 2 h, after which the plate was centrifuged at 1,800×g for 5 min at 4° C. The absorbance was recorded on a microplate reader at the wavelength of 540 nm. The effect of fisetin on growth inhibition was assessed as percent cell viability where DMSO-treated cells were taken as 100% viable. DMSO at the concentrations used was without any effect on cell viability.

Bak, Bcl-xL, Bad and Bid = test: Western blot, Bak, Bad, Bid and Bcl-xL in LNCaP cells; assay type: cell-based, human; settings: fisetin 10-60 μM, 48 h
Protocol: Protein extraction and western blotting. Following the treatment of LNCaP cells with fisetin (10-60 μM; 48 h), the media was aspirated, the cells were washed with cold PBS (pH 7.4), and ice-cold lysis buffer (50 mM Tris-HCl, 150 mM NaCl, 1 mM EGTA, 1 mM EDTA, 20 mM NaF, 100 mM Na3VO4, 0.5% NP-40, 1% Triton X-100, 1 mM PMSF (pH 7.4)) with freshly added protease inhibitor cocktail (Protease Inhibitor Cocktail Set III, Calbiochem, La Jolla, Calif.) over ice for 30 min. The cells were scraped and the lysate was collected in a microfuge tube and passed through a needle to break up the cell aggregates. […]
For western blotting, 30-50 μg protein was resolved over 8-12% polyacrylamide gels and transferred to a nitrocellulose membrane. The blot was blocked in blocking buffer (5% nonfat dry milk/1% Tween 20; in 20 mM TBS, pH 7.6) for 1 hr at room temperature, incubated with appropriate monoclonal or polyclonal primary antibody in blocking buffer for 1.5 h to overnight at 4° C., followed by incubation with anti-mouse or anti-rabbit secondary antibody horseradish peroxidase conjugate obtained from Amersham Life Science Inc. and detected by chemiluminescence and autoradiography using XAR-5 film obtained from Eastman Kodak Co. (Rochester, N.Y., USA). […]

LNCaP cells [3] = test: DNA cell cycle analysis by flow cytometry; assay type: cell-based, human; settings: 48 h
Protocol: DNA Cell Cycle Analysis. The LNCaP cells (50-60% confluent) were treated with fisetin (10-60 μM; 48 h) in complete medium. The cells were trypsinized thereafter, washed twice with cold PBS and centrifuged. The cell pellet was resuspended in 50 μl cold PBS to which cold methanol (450 μL) was added and the cells were incubated for 1 h at 4° C. The cells were centrifuged at 1,100 rpm for 5 minutes, pellet washed twice with cold PBS, suspended in 500 μl PBS and incubated with 5 μl RNase (20 μg/ml final concentration) for 30 min. The cells were chilled over ice for 10 min and incubated with propidium iodide (50 μg/ml final concentration) for 1 h for analysis by flow cytometry. Flow cytometry was performed with a FACScan (Becton Dickinson). A minimum of 10,000 cells per sample were collected and the DNA histograms were further analyzed by using ModiFitLT software (Verily Software House, Topsham, Me.) for cell cycle analysis.

## O=c1c(O)c(-c2ccc(O)c(O)c2)oc2cc(O)ccc12 [fisetin, 3,3′,4′,7-tetrahydroxyflavone]
caspase-3 and -7
  immunofluorescence staining of active caspase-3 & 7: intense staining
[1]
  Bad, Bax, Bcl2 and Bcl-xL protein expression in Akt-siRNA treated cells: augmented the increase in Bad and Bax and decrease in Bcl2 and Bcl-xL
LNCaP cells [2]; 24 h
  cytotoxicity at 10 µM: 15%
  cytotoxicity at 20 µM: 33%
  cytotoxicity at 40 µM: 45%
  cytotoxicity at 60 µM: 57%
LNCaP cells [2]; 48 h
  cytotoxicity at 10 µM: 19%
  cytotoxicity at 20 µM: 40%
  cytotoxicity at 40 µM: 49%
  cytotoxicity at 60 µM: 62%
Bak, Bcl-xL, Bad and Bid
  Bcl-xL expression: significant decrease
  protein expression of Bak, Bad and Bid: significant increase
LNCaP cells [3]; fisetin 10 μM
  G1 phase cell cycle distribution: 61%
LNCaP cells [3]; fisetin 20 μM
  G1 phase cell cycle distribution: 63%
LNCaP cells [3]; fisetin 40 μM
  G1 phase cell cycle distribution: 67%
LNCaP cells [3]; fisetin 60 μM
  G1 phase cell cycle distribution: 69%
